Experimental data published in paper PMC3574231 (ACS chemical biology, 2012).

What was measured:
[1] = Reversed-phase HPLC retention; format: physicochemical; settings: chromatographic, C-18 column
[2] = test system: MCF-7 and HEK293 cells

Substance	Retention time by reversed-phase HPLC (measure of overall hydrophobicity) [1]	Intracellular CAP fluorescence after pretreatment with 1 mM sodium pervanadate [2]
cyclo(FΦRRRRQ) [Peptide 11]	virtually identical retention times	–
cyclo[(pCAP)FΦRRRRQ] (head to tail) [cyclic pCAP]	–	dramatically reduced
